Data as given in US20090105217A1, “2-PHENYL-5-AMINO-1,3,4-OXADIAZOLES AND THEIR USE AS NICOTINIC ACETYLCHOLINE RECEPTOR LIGANDS” (priority 2007, published 2009).
Where a name gives a salt, the structure may show the parent alone.

Biological target: T1, human α7 nAChR (Homo sapiens, UniProt P36544)
T1 construct: host or cells: GH4C1 cells (pituitary tumor, immortalized cell line)
Test: α7 nAChR FLIPR (Fluorometric Imaging Plate Reader) Ca2+ assay, agonist EC50
Format: cell-based
Conditions: for EC50: GH4C1 cells stably transfected with human α7 nAChR, Fluo-4 Ca2+ fluorescence, Examples 194 to 205 tested as the HCl salt, read-out: pEC50 value (negative logarithm of the agonist EC50) (converted)
Outline: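 GH4C1 cells stably expressing human α7 nAChR, loaded with 2 μM Fluo-4 for 45–60 min at 37 °C in HEPES buffer pH 7.3 with 2 mM CaCl2 and 2.5 mM probenecid. Peak calcium fluorescence (ex 488, em 510–580 nm) after compound addition fitted for agonist EC50, reported as pEC50.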

T1 sequence (P36544 23-502): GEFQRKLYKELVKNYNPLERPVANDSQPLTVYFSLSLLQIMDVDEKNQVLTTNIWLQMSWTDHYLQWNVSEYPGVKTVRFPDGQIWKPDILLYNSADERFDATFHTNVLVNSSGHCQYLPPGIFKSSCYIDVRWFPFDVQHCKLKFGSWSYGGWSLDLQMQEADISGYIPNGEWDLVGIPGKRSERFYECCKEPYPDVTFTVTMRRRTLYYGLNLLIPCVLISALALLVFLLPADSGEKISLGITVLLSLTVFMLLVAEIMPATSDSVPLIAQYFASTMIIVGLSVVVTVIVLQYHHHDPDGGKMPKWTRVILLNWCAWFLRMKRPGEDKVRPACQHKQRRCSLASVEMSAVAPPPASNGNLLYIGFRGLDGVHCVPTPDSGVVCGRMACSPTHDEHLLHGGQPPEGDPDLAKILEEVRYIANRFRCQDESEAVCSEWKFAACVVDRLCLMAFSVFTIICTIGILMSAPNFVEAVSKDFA

EC50 | activity in the alpha 7 assay (alpha 7 assay described in the Examples) | SMILES
≤ 100 nM | – | O=C(Nc1ccc(-c2nnc(NCCCCN3CCCCC3)o2)c(F)c1)c1ccccc1F [Example 46, 2-fluoro-N-[3-fluoro-4-(5-{[4-(1-piperidinyl)butyl]amino}-1,3,4-oxadiazol-2-yl)phenyl]benzamide]
≤ 1000 nM | – | O=C(Nc1ccc(-c2nnc(NCCCN3CCCCC3)o2)c(C(F)(F)F)c1)C1CCCCC1 [Example 61, N-[4-(5-{[3-(1-piperidinyl)propyl]amino}-1,3,4-oxadiazol-2-yl)-3-(trifluoromethyl)phenyl]cyclohexanecarboxamide]
≤ 1000 nM | – | CCN(CC)CCCNc1nnc(-c2ccc(NC(=O)c3ccccc3F)cc2OC)o1 [Example 2, N-[4-(5-{[3-(Diethylamino)propyl]amino}-1,3,4-oxadiazol-2-yl)-3-(methyloxy)phenyl]-2-fluorobenzamidehydrochloride]
≤ 1000 nM | – | CCN(CC)CCCCNc1nnc(-c2ccc(NC(=O)C3CCCCC3)cc2OC)o1 [Example 82, N-[4-(5-{[4-(diethylamino)butyl]amino}-1,3,4-oxadiazol-2-yl)-3-(methyloxy)phenyl]cyclohexanecarboxamide]
≤ 1000 nM | – | COc1cc(NC(=O)c2ccccc2F)ccc1-c1nnc(NCCCN2CCCC2)o1 [Example 126, 2-fluoro-N-[3-(methyloxy)-4-(5-{[3-(1-pyrrolidinyl)propyl]amino}-1,3,4-oxadiazol-2-yl)phenyl]benzamide]
≤ 1000 nM | – | O=C(Nc1ccc(-c2nnc(NCCCN3CCCC3)o2)cc1)c1ccccc1 [Example 69, N-[4-(5-{[3-(1-pyrrolidinyl)propyl]amino}-1,3,4-oxadiazol-2-yl)phenyl]benzamide]
≤ 100 nM | – | O=C(Nc1ccc(-c2nnc(NCCCCN3CCCCC3)o2)c(F)c1)c1ccccc1 [Example 114, N-[3-fluoro-4-(5-{[4-(1-piperidinyl)butyl]amino}-1,3,4-oxadiazol-2-yl)phenyl]benzamide]
≤ 1000 nM | – | COc1cc(NC(=O)c2ccccc2)ccc1-c1nnc(NCCCN2CCOCC2)o1 [Example 72, N-[3-(methyloxy)-4-(5-{[3-(4-morpholinyl)propyl]amino}-1,3,4-oxadiazol-2-yl)phenyl]benzamide]
≤ 100 nM | – | COc1cc(NC(=O)c2ccccc2)ccc1-c1nnc(NCCCCN2CCCC2)o1 [Example 76, N-[3-(methyloxy)-4-(5-{[4-(1-pyrrolidinyl)butyl]amino}-1,3,4-oxadiazol-2-yl)phenyl]benzamide]
– | not found to have activity | CN(C)CCCN(C)c1nnc(-c2ccc(NC(=O)c3ccccc3F)cc2)o1 [N-(4-{5-[[3-(dimethylamino)propyl](methyl)amino]-1,3,4-oxadiazol-2-yl}phenyl)-2-fluorobenzamide]
≤ 100 nM | – | O=C(Nc1ccc(-c2nnc(NCCCN3CCN4CCC3CC4)o2)c(F)c1)c1ccccc1 [Example 124, N-[4-(5-{[3-(1,4-diazabicyclo[3.2.2]non-4-yl)propyl]amino}-1,3,4-oxadiazol-2-yl)-3-fluorophenyl]benzamide]
≤ 1000 nM | – | O=C(Nc1ccc(-c2nnc(NCCCN3CCCC3)o2)c(Cl)c1)C1CCCCC1 [Example 157, N-[3-chloro-4-(5-{[3-(1-pyrrolidinyl)propyl]amino}-1,3,4-oxadiazol-2-yl)phenyl]cyclohexanecarboxamide]
≤ 1000 nM | – | O=C(Nc1ccc(-c2nnc(NCCCN3CCOCC3)o2)c(Cl)c1)c1ccccc1 [Example 101, N-[3-chloro-4-(5-{[3-(4-morpholinyl)propyl]amino}-1,3,4-oxadiazol-2-yl)phenyl]benzamide]
≤ 100 nM | – | O=C(Nc1ccc(-c2nnc(NCCCCN3CCCC3)o2)c(C(F)(F)F)c1)c1ccccc1 [Example 92, N-[4-(5-{[4-(1-pyrrolidinyl)butyl]amino}-1,3,4-oxadiazol-2-yl)-3-(trifluoromethyl)phenyl]benzamide]
≤ 100 nM | – | COc1cc(NC(=O)c2ccccc2F)ccc1-c1nnc(NCCCN2CCN3CCC2CC3)o1 [Example 120, N-[4-(5-{[3-(1,4-diazabicyclo[3.2.2]non-4-yl)propyl]amino}-1,3,4-oxadiazol-2-yl)-3-(methyloxy)phenyl]-2-fluorobenzamide]
≤ 100 nM | – | O=C(Nc1ccc(-c2nnc(NCCCN3CCN4CCC3CC4)o2)c(Cl)c1)c1ccccc1F [Example 125, N-[3-chloro-4-(5-{[3-(1,4-diazabicyclo[3.2.2]non-4-yl)propyl]amino}-1,3,4-oxadiazol-2-yl)phenyl]-2-fluorobenzamide]
≤ 100 nM | – | COc1cc(NC(=O)c2ccccc2)ccc1-c1nnc(NCCCCN2CCCCC2)o1 [Example 32, N-[3-(methyloxy)-4-(5-{[4-(1-piperidinyl)butyl]amino}-1,3,4-oxadiazol-2-yl)phenyl]benzamide]
≤ 1000 nM | – | CCN(CC)CCCNc1nnc(-c2ccc(NC(=O)c3ccccc3)cc2OC)o1 [Example 74, N-[4-(5-{[3-(diethylamino)propyl]amino}-1,3,4-oxadiazol-2-yl)-3-(methyloxy)phenyl]benzamide]

EC50 | activity in the alpha 7 assay (alpha 7 assay described in the Examples) | SMILES
≤ 100 nM | – | COc1cc(NC(=O)c2ccccc2F)ccc1-c1nnc(NCCCCN2CCCC2)o1 [Example 127, 2-fluoro-N-[3-(methyloxy)-4-(5-{[4-(1-pyrrolidinyl)butyl]amino}-1,3,4-oxadiazol-2-yl)phenyl]benzamide]
≤ 1000 nM | – | COc1cc(NC(=O)c2c(F)cccc2F)ccc1-c1nnc(NCCCN2CCOCC2)o1 [Example 226, 2,6-difluoro-N-[3-(methyloxy)-4-(5-{[3-(4-morpholinyl)propyl]amino}-1,3,4-oxadiazol-2-yl)phenyl]benzamidetrifluoroacetate]
≤ 1000 nM | – | O=C(Nc1ccc(-c2nnc(NCCCN3CCCCC3)o2)cc1)c1cccnc1 [Example 13, N-[4-(5-{[3-(1-Piperidinyl)propyl]amino}-1,3,4-oxadiazol-2-yl)phenyl]-3-pyridinecarboxamidehydrochloride]
≤ 1000 nM | – | O=C(Nc1ccc(-c2nnc(NCCCN3CCCCC3)o2)cc1)c1cccc(F)c1F [Example 16, 2,3-Difluoro-N-[4-(5-{[3-(1-piperidinyl)propyl]amino}-1,3,4-oxadiazol-2-yl)phenyl]benzamidehydrochloride]
≤ 1000 nM | – | CCN(CC)CCCNc1nnc(-c2ccc(NC(=O)c3ccccc3F)cc2C(F)(F)F)o1 [Example 88, N-[4-(5-{[3-(diethylamino)propyl]amino}-1,3,4-oxadiazol-2-yl)-3-(trifluoromethyl)phenyl]-2-fluorobenzamide]
≤ 1000 nM | – | O=C(Nc1ccc(-c2nnc(NCCCN3CCCC3)o2)c(C(F)(F)F)c1)c1ccccc1F [Example 84, 2-fluoro-N-[4-(5-{[3-(1-pyrrolidinyl)propyl]amino}-1,3,4-oxadiazol-2-yl)-3-(trifluoromethyl)phenyl]benzamide]
≤ 100 nM | – | O=C(Nc1ccc(-c2nnc(NCCCCN3CCOCC3)o2)c(C(F)(F)F)c1)c1ccccc1 [Example 94, N-[4-(5-{[4-(4-morpholinyl)butyl]amino}-1,3,4-oxadiazol-2-yl)-3-(trifluoromethyl)phenyl]benzamide]
≤ 100 nM | – | CCc1cc(NC(=O)c2ccccc2F)ccc1-c1nnc(NCCCN2CCN3CCC2CC3)o1 [Example 169, N-[4-(5-{[3-(1,4-diazabicyclo[3.2.2]non-4-yl)propyl]amino}-1,3,4-oxadiazol-2-yl)-3-ethylphenyl]-2-fluorobenzamide]
≤ 1000 nM | – | O=C(Nc1ccc(-c2nnc(NCCCN3CCCCC3)o2)cc1)c1cccs1 [Example 8, N-[4-(5-{[3-(1-Piperidinyl)propyl]amino}-1,3,4-oxadiazol-2-yl)phenyl]-2-thiophenecarboxamidehydrochloride]
≤ 1000 nM | – | O=C(Nc1ccc(-c2nnc(NCCCN3CCCC3)o2)c(C(F)(F)F)c1)c1ccccc1 [Example 91, N-[4-(5-{[3-(1-pyrrolidinyl)propyl]amino}-1,3,4-oxadiazol-2-yl)-3-(trifluoromethyl)phenyl]benzamide]
≤ 1000 nM | – | O=C(Nc1ccc(-c2nnc(NCCCCN3CCOCC3)o2)cc1)c1ccccc1 [Example 116, N-[4-(5-{[4-(4-morpholinyl)butyl]amino}-1,3,4-oxadiazol-2-yl)phenyl]benzamide]
≤ 1000 nM | – | O=C(Nc1ccc(-c2nnc(NCCCN3CCCCC3)o2)cc1)c1ccco1 [Example 185, N-[4-(5-{[3-(1-piperidinyl)propyl]amino}-1,3,4-oxadiazol-2-yl)phenyl]-2-furancarboxamide]
≤ 1000 nM | – | CCN(CC)CCCCNc1nnc(-c2ccc(NC(=O)C3CCCCC3)cc2Cl)o1 [Example 160, N-[3-chloro-4-(5-{[4-(diethylamino)butyl]amino}-1,3,4-oxadiazol-2-yl)phenyl]cyclohexanecarboxamide]
≤ 1000 nM | – | COc1cc(NC(=O)c2ccccc2)ccc1-c1nnc(NCCCN2CCCC2)o1 [Example 70, N-[3-(methyloxy)-4-(5-{[3-(1-pyrrolidinyl)propyl]amino}-1,3,4-oxadiazol-2-yl)phenyl]benzamide]
≤ 1000 nM | – | O=C(Nc1ccc(-c2nnc(NCCCN3CCOCC3)o2)cc1)c1ccccc1 [Example 117, N-[4-(5-{[3-(4-morpholinyl)propyl]amino}-1,3,4-oxadiazol-2-yl)phenyl]benzamide]
≤ 100 nM | – | COc1cc(NC(=O)C2CCCCC2)ccc1-c1nnc(NCCCCN2CCCCC2)o1 [Example 83, N-[3-(methyloxy)-4-(5-{[4-(1-piperidinyl)butyl]amino}-1,3,4-oxadiazol-2-yl)phenyl]cyclohexanecarboxamide]
≤ 100 nM | – | O=C(Nc1ccc(-c2nnc(NCCCCN3CCCCC3)o2)c(C(F)(F)F)c1)C1CCCCC1 [Example 62, N-[4-(5-{[4-(1-piperidinyl)butyl]amino}-1,3,4-oxadiazol-2-yl)-3-(trifluoromethyl)phenyl]cyclohexanecarboxamide]
≤ 1000 nM | – | CCN(CC)CCCNc1nnc(-c2ccc(NC(=O)CC(C)C)cc2OC)o1 [Example 230, N-[4-(5-{[3-(diethylamino)propyl]amino}-1,3,4-oxadiazol-2-yl)-3-(methyloxy)phenyl]-3-methylbutanamidetrifluoroacetate]
